Key:
PTH receptor = molecular target: T1, PTH receptor (Rattus norvegicus, UniProt P25961); assay: Assay of PTH activity: c-AMP generated on reaction with rat renal cortex PTH receptor preparation, parallel line assay against standard bovine PTH(1-34); assay type: biochemical; details: for PTH Activity After Labelling with 125I: after labelling with iodine-125 (chloramine T); for PTH Activity After Labelling with 125I / PTH Activity: rat renal cortex PTH receptor, c-AMP generation; for PTH Activity: unlabelled sample, vs standard bovine PTH(1-34); for h-PTH activity, times stronger than known h-PTH(1-34) and [Nle8, Nle18]-h-PTH(1-34): compared with h-PTH(1-34) and [Nle8, Nle18]-h-PTH(1-34)
T1 construct: A surface membrane was removed, and the renal cortex carved out and ice-cooled; from tissue; host or cells: rat (SD, male) renal cortex, crude membrane fraction (2200 x g precipitate)
T1 sequence (P25961 27-591): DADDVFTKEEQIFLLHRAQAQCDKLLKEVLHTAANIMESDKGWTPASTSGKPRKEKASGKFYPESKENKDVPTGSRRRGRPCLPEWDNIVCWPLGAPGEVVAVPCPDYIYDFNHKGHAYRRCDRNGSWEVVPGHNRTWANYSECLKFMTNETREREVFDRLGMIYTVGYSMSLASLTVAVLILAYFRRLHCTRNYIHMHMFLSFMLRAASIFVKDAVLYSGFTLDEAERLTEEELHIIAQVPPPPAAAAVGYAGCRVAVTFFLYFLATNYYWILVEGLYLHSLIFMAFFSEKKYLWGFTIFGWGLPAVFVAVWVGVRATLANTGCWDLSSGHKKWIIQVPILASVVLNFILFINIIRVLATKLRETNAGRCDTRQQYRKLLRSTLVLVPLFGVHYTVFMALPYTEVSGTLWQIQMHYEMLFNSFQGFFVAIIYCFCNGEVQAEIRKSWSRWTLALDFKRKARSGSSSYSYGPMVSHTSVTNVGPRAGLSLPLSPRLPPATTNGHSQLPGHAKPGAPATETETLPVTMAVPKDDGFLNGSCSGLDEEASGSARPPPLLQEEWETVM
Experimental: (1) Preparation of PTH receptor:
Rats, strain SD, male, weight 200-250 g, were decollated to bleed, laparotomized and excised of kidneys. A surface membrane was removed, and the renal cortex carved out and ice-cooled. The following operations should be carried out at a temperature as low as possible (0°-4° C.).
The renal cortex was immersed in a solution (hereinafter designated as solution A) of 10 mM Tris-HCl buffer (pH 7.5) containing 0.25 M sucrose and lmM EDTA. Three times the volume of solution A (ml) suspending the renal cortex (wet weight) was added to a renal cortex in a glass tube with Tefron (trade name) pestle and homogenized.
A homogenate was centrifuged for 10 minutes at 150×g, and the supernatant solution was further centrifuged for 15 mins. at 2200×g. The supernatant solution was discarded and the upper emulsion part of precipitate was suspended in a solution A. The said emulsion was centrifuged for 15 mins. at 2200×g. The precipitate was again suspended and frozen at -70° C. in a bottle stored at -20° C.
(2) Reaction with PTH and PTH-receptor:
Specimen was dissolved in 100 mM Tris-HCl buffer (ph 7.5) containing ATP-Mg 2 mM, MgCl2 10 mM, KCl 60 mM, GTP 20 μM, isobutyl methyl xanthine 1 mM, creatine phosphate 8 mM and bovine serum albumin (BSA) 0.2% to prepare 2 μg/ml and 10 μg/ml solutions. Standard bovine PTH(1-34) solution was also prepared in the same manner.
The above solutions [2 μg/ml and 10 μg/ml specimen] and bovine PTH(1-34) (50 μl) were each divided among eight glass test tubes, and kept in ice water in order to prevent ATP […] and to prepare test solutions. A stock solution of PTH receptor stored at -20° C. was thawed to room temperature. Creatine kinase, previously dissolved in solution A, was added thereto to prepare creatine kinase at 0.1 mg/ml and PTH receptor at 1.4 mg/ml as protein by adding solution A while keeping the solution in ice cooling. After the above test solutions were preincubated at 37° C. for several minutes, the PTH receptor-creatine kinase solution (each 50 μl) was added therein and incubated at 37° C. for 10 mins. 0.1 M acetate buffer (pH 4.0, 100 μl) was added, the mixture immediately placed in ice-water, and the tube heated in boiling water for one minute to stop the reaction.
(3) Assay of generated c-AMP:
Distilled water was added to the above reaction-stopped solution to 10-30 times dilution, and deproteinized by centrifugation for 15 mins. at 2000×g. An amount of c-AMP in a supernatant solution was assayed by RIA-kit (YASAMA SHOYU CO.)
(4) Determination of PTH activity:
The measured values of c-AMP hereinabove were converted to a unit of pM (pico mole)/mg PTH receptor-protein/minute as a designation of measured value. The measured value of the specimen was compared to the standard substance according to a parallel assay line two by two.

[1] = cited from earlier work; for PTH / hormonal activity compared with natural h-PTH: prior art, Jap. Pat. Unexam. Publ. No. 55-113753
PTH receptors = assay: Affinity for PTH receptors (statement, no method given); assay type: binding; details: in words

| Substance | PTH Activity After Labelling with 125I (PTH receptor) | PTH Activity (PTH receptor) | also measured |
| --- | --- | --- | --- |
| h-PTH: sample of the activity table; human parathyroid hormone, probably the h-PTH(1-34) fragment labelled in b29 | > 100 U/mg | 3000 U/mg | – |
| h-PTH(1-34) (SVSEIQLMHNLGKHLNSMERVEWLRKKLQDVHNF; Parathyroid hormone; UniProt P01270 32-65, looked up, fragment) [34-amino acid N-terminal fragment of human parathyroid hormone] | – | – | hormonal activity when labelled with iodine-125 ([1]; methionine at position-8 and -18 is oxidized): loses hormonal activity |
| [Nle^8, Nle^18, Tyr^34 ]-h-PTH(1-34) | 2480 U/mg | 2930 U/mg | PTH / hormonal activity compared with natural h-PTH [1]: only approximately equal to that of natural h-PTH(1-34) |
| [Nle^8, Nle^18 ]-h-PTH(1-34) | – | – | PTH / hormonal activity compared with natural h-PTH [1]: approximately equal to but no more than that of natural h-PTH |
| h-PTH(1-34)NH2 | > 150 U/mg | 5100 U/mg | – |
| [Nle^8, Nle^18, Phe^34 ]-h-PTH(1-34)NH2 | – | 5000 U/mg | h-PTH activity, times stronger than known h-PTH(1-34) and [Nle8, Nle18]-h-PTH(1-34) (PTH receptor): 1.5-2 times; affinity for PTH receptors compared with known h-PTH(1-34) and [Nle8, Nle18]-h-PTH(1-34) (PTH receptors): stronger affinity |
| [Nle^8, Nle^18, Tyr^34 ]-h-PTH(1-34)NH2 | 5000 U/mg | 5030 U/mg | PTH activity after labelling (in words) (PTH receptor; after labelling with iodine-125): retains its PTH activity after labelling; h-PTH activity, times stronger than known h-PTH(1-34) and [Nle8, Nle18]-h-PTH(1-34) (PTH receptor): 1.5-2 times; biological activity in long term storage (PTH receptor; labelled peptide, long term storage): retains its biological activity in long term storage; affinity for PTH receptors compared with known h-PTH(1-34) and [Nle8, Nle18]-h-PTH(1-34) (PTH receptors): stronger affinity |

From patent US4656250A, “[Nle^8, Nle^18, Tyr^34 or Phe^34 ]-h-PTH peptide derivatives” (Toyo Jozo Kabushiki Kaisha, priority 1983, dated 1987)
